Test results reported in patent publication US20160299149A1, “ASSAYS AND METHODS FOR CELL PROLIFERATION-TARGETED TREATMENT THERAPIES” (University of Central Florida Research Foundation, Inc., priority 2015, published 2016).
Like-named read-outs stand apart in the source and are kept apart here.

Columns and labels:
MALME-3M cells = assay: Cytotoxicity IC50 in metastatic melanoma cells; type: cell-based
Source text: (§1) Graphical bars extending to the right of the 0 growth percent line indicates growth inhibition by compound A of those specific cell lines.

amine oxidases = assay: Metabolic stability to amine oxidases; type: in vitro ADME, calf; settings: unmethylated compound judged without the protective aminoguanidine (AG)
Source text: (§2) Table 1 compares unmethylated Compound A (containing primary amine termini), and N-methylated Compound A (containing N-methyl termini). […] This is due to the presence of the terminal N-methyl groups in A.

CHO-MG* cells = assay: PTS targeting: cytotoxicity IC50 in PTS-deficient cells; type: cell-based
Source text: as §2

MALME-3 cells = assay: Cytotoxicity IC50 in matched control cells; type: cell-based; settings: in the presence of aminoguanidine (1 mM)
CHO cells = assay: PTS targeting: cytotoxicity IC50 in PTS-active cells; type: cell-based
Source text: as §2

PanO2 derived tumors = assay: Histology (Ki67, cleaved caspase) of PanO2 derived tumors; type: in vivo; settings: PanO2 derived tumors in C57Bl/6 mice
Source text: FIG. 14 illustrates histological stained images of Ki67, a proliferation marker, and cleaved caspase in the presence of DFMO or DFMO+ the trimer44NMe PTI

L3.6pl cells [1] = assay: Assay 2 with GW5074 PTI in L3.6pl cells; type: cell-based, human; settings: 500 cells/well, 48 h at 37° C., 250 μM aminoguanidine
Procedure: (§3) DFMO was dosed to give 50% relative viability versus an untreated control, i.e. DFMO is dosed at its IC50 value. Exogenous spermidine (Spd, 1 μM) is added to the DFMO treated cells and provided significant rescue of these cells to >80% viability depending upon the cell line. A successful PTI was able to block the entry of the spermidine rescuing agent into DFMO treated cells and result in a cell viability near the DFMO control (i.e. 50% viability). The inventors identified the following cell viabilities: DFMO only (50%), Spd only (100%), PTI (>90%), DFMO+Spd (>80%), DFMO+Spd+PTI (50%). The PTI provides a dose dependent lowering of cell viability in the presence of DFMO and a rescuing dose of spermidine. […] Identifying cells that respond to exogenous spermidine allow this assay to be possible and the c-myc and ATP13A3 biomarkers help predict these outcomes as well as the Vmax measurements for ^3H Spd import.

L3.6pl cells [2] = assay: DFMO 48 h IC50 in L3.6pl cells; type: cell-based, human
Procedure: FIG. 19B provides a graphical illustration of the effect of scrambled siRNA vs. ATP13A3 siRNA on relative L3.6pl cell viability % when challenged with a 48 h IC50 dose of DFMO (8 mM) and a rescuing dose of Spd (1 μM).
FIG. 20B provides a graphical illustration of the effect of scrambled siRNA vs. ATP13A3 siRNA on relative L3.6pl cell viability % when challenged with a 48 h IC50 dose of DFMO (8 mM) and a rescuing dose of Spd (1 μM).

DFMO-treated cells = assay: Polyamine transport inhibitor assay 2: PTI blocks uptake of rescuing spermidine into DFMO-treated cells; type: cell-based
Procedure: FIG. 6A is a diagram showing an assay wherein the uptake of rescuing dose of spermidine into DFMO-treated cells is blocked by a PTI (GW 5074).
as §3

[3] = system: L3.6pl, Panc1, CHO and PanO2 cells; assay: Cell line sensitivity to DFMO and spermidine rescue challenge; type: cell-based
[4] = system: BxPC-3 pancreatic cancer cells; assay: Western blot of ATP13A3 and Cav-1 protein levels with DFMO; type: cell-based, human; settings: 72 h incubation at 37° C.
Procedure: (§4) FIGS. 9A-B provide graphical illustrations of the modulation of ATP13A3 and Cav-1, respectively, by DFMO and DFMO+Spermidine in L3.6pl human pancreatic cancer cells after 72 h incubation at 37° C. In FIG. 9A ATP13A3 protein levels after 72 h incubation at 37° C. are shown in L3.6pl (top) and Bx-PC3 (bottom) pancreatic cancer cells in the presence of DFMO or DFMO+Spd as analyzed by Western blot. Expression was normalized using β-actin levels. […] Note an increase in Cav-1 levels would stabilize caveolae at the cell surface and reduce the uptake of polyamines via a caveolin dependent pathway. A decrease in Cav-1 levels would increase polyamine import.

[5] = system: L3.6pl pancreatic cancer cells; assay: as above; type: cell-based, human; settings: 72 h incubation at 37° C.
Procedure: as §4

[6] = system: MALME-3M cells and MALME-3 control cells; assay: Spermidine competition / percent viability with compound A; type: cell-based
Procedure: Aminoguanidine (AG) at 1 mM was determined to be non-toxic and was incubated with cells for 24 h prior to compound addition. Control represents the untreated cells. All experiments were performed in triplicate. Spermidine (Spd, 100 μM) was non-toxic to both cell lines. […] Compound A is a valid polyamine transport probe.

L3.6pl pancreatic tumor = assay: Human L3.6pl pancreatic tumor in nude mice, combination with 1% DFMO; type: in vivo; settings: GW5074 1 mg/kg i.p. 5 days per week for 2 weeks, trimer44NMe equimolar (1.8 mg/kg), 1% DFMO in drinking water
Procedure: The extension of these findings is that cells which have high c-myc and ATP13A3 expression will be sensitive to the therapy described herein. These therapies were evaluated in vivo.
The first set of experiments was in nude mice (immune compromised) using human L3.6pl pancreatic cancer cells which have high ATP13A3 and high c-myc expression and high Vmax. […] Note TTI′ in FIGS. 12 and 13 refer to the polyamine-based trimer44NMe PTI compound.
0.5×10^6 L3.6pl tumor cells were injected into the pancreas of nude mice and allowed to grow for 1 week. 1% DFMO was administered in the drinking water (changed weekly) for 2 weeks. […] Mice were collected and pancreatic tissue/tumor, with spleen attached, was weighed.

melanoma cell lines = assay: NCI 60-cancer cell screen; type: cell-based; settings: for sensitivity of MALME-3M in NCI 60-cancer cell screen: MALME-3M (low Cav-1 and high Cav-2)
Source text: as §1

[7] = in the presence of aminoguanidine (1 mM)
[8] = with aminoguanidine (AG), read-out: CHO-MG* IC50 w/ AG
[9] = without aminoguanidine (AG), read-out: CHO-MG* IC50 w/o AG
[10] = with aminoguanidine (AG), read-out: CHO IC50 w/ AG
[11] = without aminoguanidine (AG), read-out: CHO IC50 w/o AG
[12] = MALME-3M, 96 h, read-out: 96 h IC50

Compound: NCCCCNCCCCNCc1ccc(CNCCCCNCCCCN)c2ccccc12 [Compound A w/o Me]
- IC50 ratio (MALME-3/MALME-3M) (MALME-3M cells; [7]): 71
- IC50 (MALME-3M cells; in the presence of aminoguanidine (1 mM), read-out: MALME-3M IC50): 0.018 µM
- metabolic stability to amine oxidases (amine oxidases): less selective and less metabolically stable
- IC50 (CHO-MG* cells; [8]): > 100 µM
- IC50 (CHO-MG* cells; [9]): 52.1 µM
- IC50 (MALME-3 cells): 1.21 µM
- IC50 ratio w/ AG (CHO-MG*/CHO) (CHO cells; with aminoguanidine (AG)): >4545
- IC50 (CHO cells; [10]): 0.022 µM
- IC50 ratio w/o AG (CHO-MG*/CHO) (CHO cells; without aminoguanidine (AG)): 9.5
- IC50 (CHO cells; [11]): 5.5 µM

Compound: difluoromethylornithine [DFMO]
- proliferation (Ki67 histological stain) (PanO2 derived tumors): reduced proliferation
- effectiveness against L3.6pl cells (L3.6pl cells [1]; DFMO alone): effective
- IC50 (L3.6pl cells [2]): 8000 µM
- cell viability (DFMO-treated cells; DFMO dosed at its IC50, Spd 1 μM, PTI not above its IC10, relative to untreated control): 50%
- IC50 [3]: < 5000 µM
- relative ATP13A3 expression (normalized using β-actin) ([4]; Bx-PC3, 48 h IC50 DFMO dose (e.g., 8 mM)): significant increase
- levels of Cav-1 ([4]; BxPC-3, in the presence of DFMO): not dramatically changed
- relative ATP13A3 expression (normalized using β-actin) ([5]; 48 h IC50 DFMO dose (e.g., 8 mM)): significant increase
- levels of Cav-1 ([5]; in the presence of DFMO): not dramatically changed

Compound: CNCCCCNCCCCNCc1cc(CNCCCCNCCCCNC)cc(CNCCCCNCCCCNC)c1 [Compound 6b]
- metabolic stability to amine oxidases (amine oxidases): enhanced stability
- proliferation (Ki67 histological stain) (PanO2 derived tumors): reduced proliferation
- cleaved caspase staining (apoptosis) (PanO2 derived tumors; PTI by itself): apoptosis is occurring
- effectiveness as PTI agent in vitro (DFMO-treated cells; in vitro): effective

Compound: N=C(N)NN [Aminoguanidine, aminoguanidine]
- toxicity to cells ([6]; 1 mM, incubated with cells for 24 h prior to compound addition): non-toxic

Compound: O=C1Nc2ccc(I)cc2/C1=C/c1cc(Br)c(O)c(Br)c1 [GW5074]
- reduction in tumor size (L3.6pl pancreatic tumor): statistically significant reduction
- effectiveness against L3.6pl cells (L3.6pl cells [1]; in combination with DFMO): effective

Compound: CNCCCCNCCCCNCc1ccc(CNCCCCNCCCCNC)c2ccccc12 [Compound A]
- IC50 (MALME-3M cells; [12]): 0.014 µM
- IC50 ratio (MALME-3/MALME-3M) (MALME-3M cells; [7]): 59
- metabolic stability to amine oxidases (amine oxidases): metabolically stable
- IC50 (CHO-MG* cells; [8]): > 100 µM
- IC50 (CHO-MG* cells; [9]): > 100 µM
- IC50 (MALME-3 cells): 0.82 µM
- competition with spermidine for cell entry (percent viability) ([6]; 96 h at 37 degrees Celsius, 0.02 μM (MALME-3M cells), 0.8 μM (MALME-3 control cells)): competes with Spd for cell entry
- CHO-MG*/CHO IC50 ratio (selectivity for CHO cells with active PTS) (CHO cells; summary bound, also when AG is removed): > 2200
- IC50 ratio w/ AG (CHO-MG*/CHO) (CHO cells; with aminoguanidine (AG)): >2272
- IC50 (CHO cells; [10]): 0.044 µM
- IC50 ratio w/o AG (CHO-MG*/CHO) (CHO cells; without aminoguanidine (AG)): >2564
- IC50 (CHO cells; [11]): 0.039 µM
- sensitivity of MALME-3M in NCI 60-cancer cell screen (melanoma cell lines; 10 μM): most sensitive cell line
- growth of cancer cell lines in NCI 60-cancer cell screen (melanoma cell lines; 10 μM, MALME-3M, M14, MDA-MB-435, SK-MEL2, SK-MEL-28, SK-MEL-5, UACC-257, UACC-62): decreased growth of cancer cell lines
- sensitivity of LOX IMVI melanoma cell line (melanoma cell lines; LOX IMVI (high Cav-1, low Cav-2)): most resistant melanoma cell line

Compound: CNCCCCNCCCCNCc1c2ccccc2c(CNCCCCNCCCCNC)c2ccccc12 [Compound B]
- IC50 (MALME-3M cells; [12]): 0.062 µM
- sensitivity of MALME-3M in NCI 60-cancer cell screen (melanoma cell lines; 10 μM): most sensitive cell line
